Source: patent US7741283B2, “Compositions and methods for inhibiting cell proliferation” (St. Louis University, priority 2003, dated 2010)
Several values for one entry are separate records, joined by “and”; a condition that tells them apart may be missing. Identical values can stand only once.

Columns and labels:
IRS-2 [1] = assay: 32P metabolic labeling and immunoprecipitation of IRS-2, Mv1Lu cells; format: cell-based, mink
IRS-2 [2] = assay: Determination of tyrosine phosphorylation of IRS-2, Mv1Lu cells; format: cell-based, mink
Procedure: FIG. 15 depicts tyrosine phosphorylation of IRS-2 in Mv1Lu cells treated with IGFBP-3 and insulin. Cells were stimulated with or without insulin (10 nM) for 10 min and then treated with or without IGFBP-3 (1 μg/ml) for 1 hr (A). On the other hand, cells pretreated with or without IGFBP-3 (1 μg/ml) for 2 hr and then stimulated with insulin (10 nM) for 10 min (B, lane 1 and lane 2, respectively). In a parallel experiment, cells were treated with insulin (10 nM) in the presence and absence of IGFBP-3 (1 μg/ml) for 2 hr (B, lane 3 and lane 4, respectively). […] The arrow indicates the location of tyrosine-phosphorylated IRS-2.
Mv1Lu cells were plated on 30-mm dishes at a cell density of 4×10^4/cm^2 in DMEM containing 10% fetal calf serum. The cells in serum-free DMEM were pre-treated with IGFBP-3 (1 μg/ml) for 1 or 2 hr and then treated with insulin (10 nM) for 10 min or treated with insulin (10 nM) for 10 min and then treated with IGFBP-3 (1 μg/ml) for a further 2 hr, or treated simultaneously with insulin (10 nM) and IGFBP-3 (1 μg/ml) for 2 hr. The experiments were carried out at 37° C. The cell lysates were subjected to immunoprecipitation using anti-IRS-2 IgG followed by 7.5% SDS-PAGE and Western blot analysis using anti-phosphotryosine IgG and the ECL system (Santa Cruz).

IRS-2 [3] = assay: 32P metabolic labeling and immunoprecipitation of IRS-2, MB102-9 cells; format: cell-based, mink; conditions: MB102-9 cells (αIβII); IGFBP-3 1 μg/ml, GM-CSF 1 nM
DR26 cells = assay: [methyl-3H] thymidine incorporation, DR26 cells; format: cell-based, mink; conditions: IGFBP-3 0.5 μg/ml, DR26
Procedure: (A,B) DR26 cells were incubated with various concentrations as indicated of IGFBP-3 in the absence (A) and presence (B) of various concentrations of insulin. After 18 hr at 37° C., the [methyl-^3H] thymidine incorporation into cellular DNA was determined. (C,D,E) Mv1Lu, DR26 and R1B cells metabolically labeled with ^[…]-orthophosphate for 2 hr were treated with IGFBP-3 (1:g/ml) or insulin (10 nM) (C). DR26 cells metabolically labeled with ^[…]-orthophosphate for 2 hr were treated with or without IGFBP-3 (1 μg/ml) in the presence of various concentrations of TGF-β1 as indicated (D). Mv1Lu cells expressing αIβI and αIβII chimeric receptors (MB102-16 and MB102-9 cells, respectively) metabolically labeled with ^[…]-orthophosphate for 2 hr were treated with or without IGFBP-3 (1 μg/ml) or GM-CSF (1 nM) (E). After 2 hr at 37° C. (in the absence of […]-orthophosphate in the medium), the ^[…]-labeled IRS-2 was immunoprecipitated and analyzed by 7.5% SDS-PAGE and autoradiography. […]
Mv1Lu cells were plated on 24-well clustered dishes and incubated with various concentrations of TGF-β1 or IGFBP-3 in DMEM containing 0.1% fetal calf serum. After incubation at 37° C. for 18 hr, the cells were pulse-labeled with 1 μCi of [methyl-^3H]thymidine at 37° C. for 2 hr and the [methyl-^3H] thymidine incorporation into cellular DNA was determined as described previously (59). […]

32D/IR/IRS-2 cells = assay: [methyl-3H] thymidine incorporation, 32D/IR/IRS-2 cells; format: cell-based, murine; conditions: 32D cells expressing IRS-2 and insulin receptor
Mv1Lu cells = assay: [methyl-3H] thymidine incorporation (DNA synthesis), Mv1Lu cells; format: cell-based, mink; conditions: IGFBP-3 0.5 μg/ml, Mv1Lu
H1299/vector cells [4] = assay: [methyl-3H] thymidine incorporation, H1299/vector cells; format: cell-based, human; conditions: various concentrations
H1299/vector cells [5] = assay: Cell growth (cell number), H1299/vector cells; format: cell-based, human; conditions: TGF-β1 20 pM or IGFBP-3 1 μg/ml, 3-day
PEA-C11 cells = assay: Cell growth (cell number), PEA-C11 cells; format: cell-based, mink; conditions: IGFBP-3 0.5 μg/ml, PEA-C11, 4-day
Procedure: FIG. 6 depicts the effects of IGFBP-3 and TGF-β1 on DNA synthesis (A), cell growth (B) and PAI-1 expression (C) in Mv1Lu and PEA-C11 cells. (A,B) Cells were incubated with various concentrations of IGFBP-3 (a) or TGF-β1 (b) as indicated. DNA synthesis and cell growth were determined by measuring the [methyl-^3H] thymidine incorporation into cellular DNA after 18 hr incubation (A) and by counting cell number after a 4-day incubation (B), respectively. The [methyl-^3H] thymidine incorporation in cells treated without IGFBP-3 and TGF-β1 (29,170±1,657 and 59,947±7,692 cpm/well for Mv1Lu and PEA-C11 cells, respectively) were taken as 0% inhibition. […] Each data point is the mean±S.D. of quadruplicate determinations. […] Data are representative of eight similar experiments. (C) Cells were incubated with various concentrations of TGF-β1 as indicated. After 2 hr at 37° C., the PAI-1 expression was determined by Northern blot analysis. The expression of glyceraldehyde-3-phosphate dehydrogenase (G3PDH) was used as control. The relative levels of the transcripts were quantified by a Phospholmager. Data are representative of four similar experiments.
Cells were plated at a density of 1-2×10^4 cells/dish in DMEM containing 1% fetal calf serum. The cell number was counted every day or after a 3-day incubation using a hematocytometer. The assays were performed in quadruplicate.

With “IGFBP-3: human insulin-like growth factor binding protein-3 expressed in E. Coli” the “Incubation time after which mobility change of 32P-labeled IRS-2 occurred” value (IRS-2 [1]; IGFBP-3 1 μg/ml, Mv1Lu) was 0.5 h, the “Half-optimal concentration (ED50) to induce electrophoretic mobility change of 32P-labeled IRS-2” value (IRS-2 [1]; Mv1Lu cells) was 0.1 to 0.3 µg/mL and the “Induction of specific dephosphorylation (mobility change) of 32P-labeled IRS-2” value (IRS-2 [1]; Mv1Lu, IGFBPs 1 μg/ml, TGF-β1 20 pM) was “induces specific dephosphorylation”. The “Effect on insulin-stimulated tyrosine phosphorylation of IRS-2” value (from here on “Effect … of IRS-2”) (IRS-2 [2]; IGFBP-3 pretreatment 2 hr, then insulin 10 nM 10 min) was “diminished”, the “Effect … of IRS-2” value (IRS-2 [2]; insulin 10 nM 10 min, then IGFBP-3 1 μg/ml 1 hr) was “failed to affect” and the “Effect … of IRS-2” value (IRS-2 [2]; simultaneous insulin 10 nM and IGFBP-3 1 μg/ml, 2 hr) was “enhancement”. For the same substance, the “Specific dephosphorylation (mobility change) of IRS-2” value (IRS-2 [3]) was “induced specific dephosphorylation”, the “Inhibition of DNA synthesis” value (DR26 cells) was about 80% and the “Growth inhibitory response (DNA synthesis)” value (32D/IR/IRS-2 cells) was “potent growth inhibitory response”. The “Inhibition of DNA synthesis” value (Mv1Lu cells) was ~30% and 30-50%, the “Effect on DNA synthesis” value (H1299/vector cells [4]) was “acted as mitogens or growth stimulators” and the “Effect on cell growth” value (H1299/vector cells [5]) was “acted as mitogens or growth stimulators”. The “Inhibition of cell growth” value (PEA-C11 cells) was about 45%.
